Experimental data as given in patent publication US20220324835A1 (Nurix Therapeutics, Inc., priority 2018, published 2022).
Like-named read-outs stand apart in the source and are kept apart here.

Target: Cbl-b (Homo sapiens, UniProt Q13191)
Experiment: Cbl-b activity assay (Cbl-b inhibition assay), TR-FRET of Cbl-b interaction with UbcH5B-Ub
Format: biochemical
Method: The ability of candidate compounds to inhibit Cbl-b activity was measured by monitoring the interaction of Cbl-b with UbcH5B-Ub in the presence of the candidate compound.
Fluorescently labeled UbcH5B-Ub was prepared by conjugating ubiquitin (Ub), labeled at its N-terminus with Bodipy-Fluorescein, to UbcH5B, an E2 enzyme, harboring a cysteine to lysine mutation at position 85. […] After incubation in the presence of the candidate compound, the plate was incubated for an additional 1.5 hours in the presence of 60 nM Src kinase with 1 mM ATP and 5 mM MgCl2 (final concentrations). […] The plate was incubated for 1 hour.
Column marked with an asterisk (*) were tested as described above with assay buffer containing 50 mM NaCl instead of 100 mM NaCl and 30 nM Src kinase instead of 60 nM Src kinase. The resulting data for the Cbl-b binding assay was solvent corrected and double referenced prior to analysis. All data were globally fit to a steady-state affinity and kinetic binding model where applicable). Fit parameters were derived from a 1:1 binding model using the Biacore T200 Evaluation Software V2.0 (GE Healthcare) (Table 2).

[1] = assay buffer with 100 mM NaCl, 60 nM Src kinase, read-out: Cbl-b activity IC50
[2] = * assay buffer containing 50 mM NaCl instead of 100 mM NaCl and 30 nM Src kinase instead of 60 nM, read-out: Cbl-b activity IC50 (μM)*

Sequence of Cbl-b (Q13191 36-427): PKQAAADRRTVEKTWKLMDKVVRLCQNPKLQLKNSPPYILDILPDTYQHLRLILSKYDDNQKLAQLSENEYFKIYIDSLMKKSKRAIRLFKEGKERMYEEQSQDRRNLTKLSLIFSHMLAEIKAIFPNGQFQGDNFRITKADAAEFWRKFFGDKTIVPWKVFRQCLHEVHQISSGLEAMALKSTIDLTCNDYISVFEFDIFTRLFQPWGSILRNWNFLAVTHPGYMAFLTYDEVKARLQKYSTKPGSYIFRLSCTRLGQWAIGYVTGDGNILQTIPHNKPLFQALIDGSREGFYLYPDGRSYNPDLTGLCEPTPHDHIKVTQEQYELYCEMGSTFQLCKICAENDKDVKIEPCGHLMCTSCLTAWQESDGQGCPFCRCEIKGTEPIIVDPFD

Structure (SMILES) | IC50 [1] [µM] | IC50 [2] [µM]
Cn1cnnc1C(F)[C@@](C)(F)c1cccc(N2Cc3c(cccc3C(F)(F)F)C2=O)c1 (stereo in doubt) [Compound 478b, 2-(3-((1R,2S)-1,2-difluoro-1-(4-methyl-4H-1,2,4-triazol-3-yl)propan-2-yl)phenyl)-4-(trifluoromethyl)isoindolin-1-one] | 1 to 3 | 
Cc1ccc2cc(C(=O)Nc3cccc(C(C)Sc4nncn4C)c3)cnc2c1 (centres unmarked) [Compound 15, 7-Methyl-N-(3-(1-(4-methyl-4H-1,2,4-triazol-3-ylthio)ethyl)phenyl)quinoline-3-carboxamide] |  | > 10
CC(Sc1nncn1C)c1cccc(NC(=O)c2ccc3ccc(Cl)cc3n2)c1 (centres unmarked) [Compound 16, 7-Chloro-N-(3-(1-((4-methyl-4H-1,2,4-triazol-3-yl)thio)ethyl)phenyl)quinoline-2-carboxamide] |  | 3 to 10
CC(Sc1nncn1C)c1cccc(NC(=O)c2ccc3cccnc3n2)c1 (centres unmarked) [Compound 18, N-(3-(1-((4-Methyl-4H-1,2,4-triazol-3-yl)thio)ethyl)phenyl)-1,8-naphthyridine-2-carboxamide] |  | 3 to 10
CC(Sc1nncn1C)c1cccc(NC(=O)c2cc3ccncc3cn2)c1 (centres unmarked) [Compound 19, N-(3-(1-((4-Methyl-4H-1,2,4-triazol-3-yl)thio)ethyl)phenyl)-2,7-naphthyridine-3-carboxamide] |  | 3 to 10
CC(Sc1nncn1C)c1cccc(NC(=O)c2ccc3ncccc3n2)c1 (centres unmarked) [Compound 20, N-(3-(1-((4-Methyl-4H-1,2,4-triazol-3-yl)thio)ethyl)phenyl)-1,5-naphthyridine-2-carboxamide] |  | 3 to 10
Cc1ccc2ccc(C(=O)Nc3cccc(C(C)Sc4nncn4C)c3)nc2n1 (centres unmarked) [Compound 21, 7-Methyl-N-(3-(1-((4-methyl-4H-1,2,4-triazol-3-yl)thio)ethyl)phenyl)-1,8-naphthyridine-2-carboxamide] |  | > 10
CC(Sc1nncn1C)c1cccc(NC(=O)c2cc3ccccc3c(=O)[nH]2)c1 (centres unmarked) [Compound 22, N-(3-(1-((4-Methyl-4H-1,2,4-triazol-3-yl)thio)ethyl)phenyl)-1-oxo-1,2-dihydroisoquinoline-3-carboxamide] |  | > 10
CC(Sc1nncn1C)c1cccc(NC(=O)c2cc3c(cn2)CCCC3)c1 (centres unmarked) [Compound 24, N-(3-(1-((4-Methyl-4H-1,2,4-triazol-3-yl)thio)ethyl)phenyl)-5,6,7,8-tetrahydroisoquinoline-3-carboxamide] |  | 3 to 10
CC(Sc1nncn1C)c1cccc(NC(=O)c2cc3ccc(Cl)cc3cn2)c1 (centres unmarked) [Compound 25, 7-Chloro-N-(3-(1-((4-methyl-4H-1,2,4-triazol-3-yl)thio)ethyl)phenyl)isoquinoline-3-carboxamide] |  | 1 to 3
Cc1ccc(C(=O)Nc2cccc([C@H](C)Sc3nncn3C)c2)cc1C [Compound 27, (S)-3,4-Dimethyl-N-(3-(1-((4-methyl-4H-1,2,4-triazol-3-yl)thio)ethyl)phenyl)benzamide] |  | 3 to 10
Cc1cc(C(=O)Nc2cccc([C@H](C)Sc3nncn3C)c2)ccc1Cl [Compound 28, (S)-4-Chloro-3-methyl-N-(3-(1-((4-methyl-4H-1,2,4-triazol-3-yl)thio)ethyl)phenyl)benzamide] |  | 1 to 3
Cc1cnc(C(=O)Nc2cccc([C@H](C)Sc3nncn3C)c2)cc1C [Compound 36, (S)-4,5-Dimethyl-N-(3-(1-((4-methyl-4H-1,2,4-triazol-3-yl)thio)ethyl)phenyl)picolinamide] |  | 1 to 3
CC(C)c1ccnc(C(=O)Nc2cccc([C@H](C)Sc3nncn3C)c2)c1 [Compound 37, (S)-4-Isopropyl-N-(3-(1-((4-methyl-4H-1,2,4-triazol-3-yl)thio)ethyl)phenyl)picolinamide] |  | 3 to 10
CC(Sc1nccn1C)c1cccc(NC(=O)c2cc3ccccc3cn2)c1 (centres unmarked) [Compound 100, N-[3-[1-(1-methylimidazol-2-yl)sulfanylethyl]phenyl]isoquinoline-3-carboxamide] |  | 3 to 10
CC(Sc1nccn1C)c1ccc(F)c(NC(=O)c2cccc(C(F)(F)F)n2)c1 (centres unmarked) [Compound 101, N-[2-fluoro-5-[1-(1-methylimidazol-2-yl)sulfanylethyl]phenyl]-6-(trifluoro-methyl)pyridine-2-carboxamide] |  | 3 to 10

Structure (SMILES) | IC50 [1] [µM] | IC50 [2] [µM]
C[C@@H](Sc1nncn1C)c1ccnc(NC(=O)c2cccc(C(F)(F)F)n2)c1 [Compound 102a, (R)-N-(4-(1-((4-methyl-4H-1,2,4-triazol-3-yl)thio)ethyl)pyridin-2-yl)-6-(trifluoromethyl)picolinamide] |  | 3 to 10
CC(Sc1nncn1C)c1cc(CO)cc(NC(=O)c2ccc3ccccc3n2)c1 (centres unmarked) [Compound 132, N-(3-(hydroxymethyl)-5-(1-(4-methyl-4H-1,2,4-triazol-3-ylthio)ethyl)phenyl)quinoline-2-carboxamide] |  | > 10
CC(Sc1nncn1C)c1cccc(N2Cc3ccccc3C2=O)c1 (centres unmarked) [Compound 162, 2-[3-[1-[(4-methyl-1,2,4-triazol-3-yl)sulfanyl]ethyl]phenyl]isoindolin-1-one] |  | 3 to 10
CC(Sc1nncn1C)c1cccc(N2Cc3c(cccc3C(F)(F)F)C2=O)c1 (centres unmarked) [Compound 166, 2-(3-(1-((4-methyl-4H-1,2,4-triazol-3-yl)thio)ethyl)phenyl)-4-(trifluoromethyl)isoindolin-1-one] |  | 0.301 to 1
C[C@@H](Sc1nncn1C)c1ccc(F)c(N2Cc3c(cccc3C(F)(F)F)C2=O)c1 [Compound 170, 2-[2-Fluoro-5-[(1R)-1-[(4-methyl-1,2,4-triazol-3-yl)sulfanyl]ethyl]phenyl]-4-(trifluoromethyl)isoindolin-1-one] | > 10 | 
CC(Sc1nncn1C)c1ccnc(N2Cc3ccccc3C2=O)c1 (centres unmarked) [Compound 171, 2-(4-(1-((4-methyl-4H-1,2,4-triazol-3-yl)thio)ethyl)pyridin-2-yl)isoindolin-1-one] |  | 3 to 10
C[C@@H](Cc1n[nH]cc1CO)c1cccc(N2Cc3c(cccc3C(F)(F)F)C2=O)c1 [Compound 271a, (S)-2-(3-(1-(4-(hydroxymethyl)-1H-pyrazol-3-yl)propan-2-yl)phenyl)-4-(trifluoromethyl)isoindolin-1-one] | > 10 | 
Cc1[nH]cnc1C[C@@H](C)c1cccc(N2Cc3c(cccc3C(F)(F)F)C2=O)c1 [Compound 272a, 2-[3-[(2R)-1-(5-methyl-1H-imidazol-4-yl)propan-2-yl]phenyl]-4-(trifluoromethyl)isoindolin-1-one] | 0.1 to 0.3 | 
Cc1cnnn1C[C@H](C)c1cccc(NC(=O)c2cccc(C(F)(F)F)n2)c1 [Compound 312b, (R)-N-(3-(1-(5-methyl-1H-1,2,3-triazol-1-yl)propan-2-yl)phenyl)-6-(trifluoromethyl)picolinamide] | 1 to 3 | 
C[C@H](Cc1nncn1C)c1cc(NC2(C)COC2)nc(N2Cc3c(cccc3C(F)(F)F)C2=O)c1 [Compound 349, 2-{4-[(2R)-1-(4-methyl-4H-1,2,4-triazol-3-yl)propan-2-yl]-6-[(3-methyloxetan-3-yl)amino]pyridin-2-yl}-4-(trifluoromethyl)-2,3-dihydro-1H-isoindol-1-one] | 0.301 to 1 | 
Cc1conc1C[C@H](C)c1cccc(N2Cc3c(cccc3C(F)(F)F)C2=O)c1 [Compound 367b, (S)-2-(3-(1-(4-methylisoxazol-3-yl)propan-2-yl)phenyl)-4-(trifluoromethyl)isoindolin-1-one] | 1 to 3 | 
C[C@H](Cc1nncs1)c1cccc(N2Cc3c(cccc3C(F)(F)F)C2=O)c1 [Compound 368, (R)-2-(3-(1-(1,3,4-thiadiazol-2-yl)propan-2-yl)phenyl)-4-(trifluoromethyl)isoindolin-1-one] | 0.301 to 1 | 
C[C@H](Cc1nncn1C)c1cccc(N2Cc3c(ccnc3C(C)(C)F)C2=O)c1 [Compound 373, 4-(2-fluoropropan-2-yl)-2-[3-[(2R)-1-(4-methyl-4H-1,2,4-triazol-3-yl)propan-2-yl]phenyl]-1H,2H,3H-pyrrolo[3,4-c]pyridin-1-one] | 0.301 to 1 | 
Cn1cnnc1C[C@@H](c1cccc(N2Cc3c(cccc3C(F)(F)F)C2=O)c1)C(F)(F)F [Compound 471b, (S)-2-(3-(1,1,1-trifluoro-3-(4-methyl-4H-1,2,4-triazol-3-yl)propan-2-yl)phenyl)-4-(trifluoromethyl)isoindolin-1-one] | 3 to 10 | 
Cn1cnnc1[C@@H](F)[C@@](C)(F)c1cccc(N2Cc3c(cc(C4CC4)cc3C(F)(F)F)C2=O)c1 [Compound 481b, 6-cyclopropyl-2-[3-[(1R,2S)-1,2-difluoro-1-(4-methyl-4H-1,2,4-triazol-3-yl)propan-2-yl]phenyl]-4-(trifluoromethyl)-2,3-dihydro-1H-isoindol-1-one] | 1 to 3 | 
CCn1cnnc1CC1(c2cccc(NC(=O)c3cc(C)nc(C4CC4)n3)c2)COC1 [Example 705, 2-cyclopropyl-N-(3-{3-[(4-ethyl-1,2,4-triazol-3-yl)methyl]oxetan-3-yl}phenyl)-6-methylpyrimidine-4-carboxamide] | 3 to 10 | 
